# Measurements reported in patent publication US6686382B2, “Sulfonamides and derivatives thereof that modulate the activity of endothelin” (Encysive Pharmaceuticals Inc., priority 1999, dated 2004).
# Columns and labels:
# [1] = test system: rats exposed to acute hypoxia; experiment: Acute hypoxia model, mean pulmonary arterial pressure (MPAP) increase; settings: in vivo model, rat
# Method: The chamber was gassed by adding N2 to the chamber intermittently from a liquid N2 reservoir. A baralyme (Allied Health Care Products, St. Louis, Mo., USA) CO2 scrubber kept the CO2 concentration <0.2%. Relative humidity within the chamber was kept <70% with anhydrous CaSO4. Boric acid was used to keep NH3 levels within the chamber at a minimum. See, Tilton et al. (2000) Pulm. Pharm. Ther. 13:87-97. In the initial experiment, effects of a test compound were assessed on mean pulmonary arterial pressure (MPAP) of rats subsequently exposed to acute hypoxia 90 min in duration. […] All catheters were connected to polyethylene (PE 20) tubing, and were exteriorized at the back of the neck by a stainless steel wire (0.018 in. diam) tunneled subcutaneously. Two days later, MPAP was recorded through the femoral and pulmonary arterial cannulas via transducers coupled to a polygraph recorder. […] Pulmonary pressure rapidly returned toward baseline values when this group was returned to room air at the end of the experiment.
# [2] = test system: DOCA-salt hypertensive rat; experiment: Deoxycorticosterone acetate (DOCA)-salt hypertensive rat model; settings: in vivo
# Method: Selected compounds disclosed herein have been tested for activity in the deoxycorticosterone acetate (DOCA)-salt hypertensive rat model. To perform these tests, silastic MDX4-4210 elastomer implants containing 47 mg (DOCA) were prepared according to the method of Ornmsbee et al. ((1973) the J. Pharm. Sci. 62:255-257). Briefly, DOCA is incorporated into silicon rubber implants for sustained release. To prepare the implants the DOCA is incorporated into unpolymerized silicone rubber, catalyst is added and the mixture is cast in a hemicylindrical shape.
# Sprague Dawley rats (7-8 weeks old) were unilaterally nephrectomized under ketamine anesthesia and a DOCA-implant was placed on the left lateral dorsal abdomen of the animal. The rats were allowed to recover for three weeks. During recovery they were permitted free access to normal rat chow and 0.9% NaCl drinking solution in place of drinking water. The rats develop hypertension within 3 weeks. […]
# On the day of experimentation, catheters were inserted under brevital anesthesia into the right femoral artery for measurement of blood pressure, and into the right femoral vein for administration of a selected compound. The animals were placed in a restrainer and allowed to recover for a minimum of 60 min or until a steady mean arterial blood pressure was recorded. […] Blood pressure was recorded continuously for a further 10 hrs.
Compound,"Acute Hypoxia: dose to achieve 50% inhibition of mean pulmonary artery pressure increase ([1]; listed as N-(2-acetyl-4,6-dimethylphenyl)-3-{[(3,4 dimethyl-5-isoxazolyl)amino]-sulfonyl}-) [mg/kg]","Acute Hypoxia: dose to achieve 50% inhibition of mean pulmonary artery pressure increase ([1]; listed as N-(2-acetyl-4,6-dimethylphenyl)-3-{[(3,4 dimethyl-5-isoxazolyl)amino]sulfonyl}-2)",effect on blood pressure in the hypertensive rat model [2],Acute Hypoxia: dose to achieve 50% inhibition of mean pulmonary artery pressure increase [1] [mg/kg]
"CC(=O)c1cc(C)cc(C)c1NC(=O)c1sccc1S(=O)(=O)Nc1onc(C)c1C [Compound 7, N-(2-acetyl-4,6-dimethylphenyl)-3-{[(3,4 dimethyl-5-isoxazolyl)amino]sulfonyl}-2-thiophenecarboxamide]",1,approximately 1 mg/kg,effective in decreasing blood pressure,–
"Cc1cc2c(cc1CC(=O)c1sccc1S(=O)(=O)Nc1onc(C)c1Cl)OCO2 [N-(4-chloro-3-methyl-5-isoxazolyl)-2-{[3,4-(methylenedioxy)-6-methylphenyl)acetyl]-thiophene-3-sulfonamide, reference compound]",–,–,–,2.5
